This is an account of results in patent US12522572B2, “Isoxazole hydroxamic acids as histone deacetylase 6 inhibitors” (The George Washington University, A Congressionally …, priority 2017, dated 2026).

Structures are written as SMILES. “Also recorded” adds a separate entry of the source.

For data set [1], the target named is T1, Human HDAC6 (Homo sapiens, UniProt Q9UBN7).
T1 construct: Full length with N-terminal GST tag, MW=159 kDa; GST (N); host or cells: Sf9 insect cells, baculovirus expression system
T1 sequence (Q9UBN7 1-1215): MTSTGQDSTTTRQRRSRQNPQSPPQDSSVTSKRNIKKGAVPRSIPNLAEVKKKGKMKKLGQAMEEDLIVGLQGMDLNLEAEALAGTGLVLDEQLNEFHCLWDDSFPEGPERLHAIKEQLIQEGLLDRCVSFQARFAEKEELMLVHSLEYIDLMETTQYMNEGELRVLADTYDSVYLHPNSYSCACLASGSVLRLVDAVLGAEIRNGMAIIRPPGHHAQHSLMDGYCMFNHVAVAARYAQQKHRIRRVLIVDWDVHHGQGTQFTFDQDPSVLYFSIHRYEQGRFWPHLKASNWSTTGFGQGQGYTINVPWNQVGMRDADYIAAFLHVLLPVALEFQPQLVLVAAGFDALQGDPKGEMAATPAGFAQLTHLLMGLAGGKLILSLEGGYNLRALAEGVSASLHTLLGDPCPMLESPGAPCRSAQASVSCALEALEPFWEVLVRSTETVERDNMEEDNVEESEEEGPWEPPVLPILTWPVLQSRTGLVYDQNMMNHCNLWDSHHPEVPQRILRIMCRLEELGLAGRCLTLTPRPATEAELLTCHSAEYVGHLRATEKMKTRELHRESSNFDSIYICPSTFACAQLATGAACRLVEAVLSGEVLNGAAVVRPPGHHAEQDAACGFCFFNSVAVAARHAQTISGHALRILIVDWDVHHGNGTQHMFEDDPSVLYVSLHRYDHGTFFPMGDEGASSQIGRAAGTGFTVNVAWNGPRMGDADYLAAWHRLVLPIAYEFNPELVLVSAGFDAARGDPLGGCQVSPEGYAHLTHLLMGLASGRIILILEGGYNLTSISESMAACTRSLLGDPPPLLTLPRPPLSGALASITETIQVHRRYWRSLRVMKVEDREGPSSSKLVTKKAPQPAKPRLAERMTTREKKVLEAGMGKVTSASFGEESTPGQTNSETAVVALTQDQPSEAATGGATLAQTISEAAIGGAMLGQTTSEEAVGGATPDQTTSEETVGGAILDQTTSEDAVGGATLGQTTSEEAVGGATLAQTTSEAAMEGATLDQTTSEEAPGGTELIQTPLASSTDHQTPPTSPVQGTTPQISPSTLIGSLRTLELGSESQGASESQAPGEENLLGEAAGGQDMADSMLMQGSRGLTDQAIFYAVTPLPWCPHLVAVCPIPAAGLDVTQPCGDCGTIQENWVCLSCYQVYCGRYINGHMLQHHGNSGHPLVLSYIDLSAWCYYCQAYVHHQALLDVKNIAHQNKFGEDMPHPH
Briefly: HDAC isoform inhibition, HDAC6. The format is biochemical. The note with it: for IC50: duplicate 10-dose IC50 mode, 3-fold serial dilution starting at 30 μM; for Selectivity HDAC1/HDAC6: ratio of HDAC1 IC50 to HDAC6 IC50.

Data set [2] has as its target T2, Human HDAC1 (Homo sapiens, UniProt Q13547).
T2 construct: Full length with C-terminal GST tag, MW=79.9 kDa; GST (C); host or cells: Sf9 insect cells, baculovirus expression system
In words: HDAC isoform inhibition, HDAC1. The format is biochemical. The note with it: duplicate 10-dose IC50 mode, 3-fold serial dilution starting at 30 μM.

Data set [3] relates to SM1 melanoma tumor. Briefly: Syngeneic SM1 murine melanoma tumor model. The format is in vivo, C57/BL/6 mice. The note with it: 25 mg/kg and 50 mg/kg intraperitoneally, three times a week. How it is done: Animal experiments involving mice were performed in accordance to all approved protocols by the IACUC at The George Washington University. C57/BL/6 mice were obtained from Charles River (Massachusetts-Wilmington, USA). Mice for the in vivo tumor studies were subcutaneously injected in the right flank with 1.0×10^6 SM1 melanoma cells suspended in 100 μL 1× Phosphate Buffer Saline (PBS). After subcutaneous injection, tumor growth was monitored until they became palpable. Once palpable (5-8 mm in diameter), the animals were then treated with a vehicle control, or SS-2-08 at a dose of 25 mg/kg and 50 mg/kg, intraperitoneally, three times a week. Tumor growth was recorded twice a week. When the tumors reached 4000 mm^3, mice were euthanized. The values collected are represented as the mean tumor volume (mm^3) and standard deviation for treatment groups.

Data set [4] has as its system Human melanoma WM164 cells. Briefly: HDAC assay in WM164 cells. The format is cell-based. To be noted: different concentrations.
In data set [5] the test system is Human melanoma WM164 cells. In words: Immunoblot of acetylated tubulin in WM164 cells. The format is cell-based. To be noted: different concentrations, presence or absence of IL-6 (30 ng/uL) or IFNg (100 ng/uL). How it is done: Human Melanoma cells WM164 were cultured in RPMI 1640 media, supplemented with 10% FBS, penicillin/streptomycin (50 U/ml), L-glutamine (2 mM), and 2-mercaptoethanol (50 μM) (complete media), and grown under humidified conditions at 37° C. and 5% CO2.
The cells were lysed in a buffer containing 280 mM NaCl, 50 mM Tris HCL PH 8.0, 0.5% Igepal, 5 mM MgCl2, 10% glycerol and 1× protease inhibitor (Roche), phosphatase inhibitor (Santa Cruz Biotechnology). Lysates were sonicated on ice for […] (2 cycles of 30 s on, 30 s rest) and then mixed with 6× gel loading buffer and boiled for 5 minutes. Samples were then resolved on 10% or 4-15% gradient gels and transferred to nitrocellulose membranes. Membranes were blocked with 5% milk-PBS-Tween. Bands were detected by scanning blots with an LI-COR Odyssey imaging system using both 700 and 800 channels. The antibodies used for immunobloting included Anti-acetyl-α-Tubulin (SC-23950) and anti-α-Tubulin (SC-32293), which were purchased from Santa Cruz Biotechnology. Anti-HDAC6 (C0226) was from Assay Biotech. Anti-GAPDH (68795) was from Sigma Aldrich. Anti STAT3 (12640), anti P-STAT3 Y-705 (9138), anti P-STAT3 S727 (9136), and anti Acetil-STAT3 (2523) were purchased from Cell signaling. Anti PD-L1 (PA5-28115) was obtained from Thermo Scientific. Anti-FLAG (F1804) antibody was from Sigma. […]

Data set [6] can be described thus: Liver microsomal stability, mouse. To be noted: mouse liver microsomes. The format is in vitro ADME.
Data set [7] deals with Murine melanoma SM1 cells. Briefly: ApoTox-Glo Triplex Assay, apoptosis. The format is cell-based. How it is done: Murine melanoma SM1 cells were cultured in RPMI 1640 medium supplemented with: 1% minimum essential medium (MEM) non-essential amino acids solution, 10% fetal bovine serum (FBS), and 1% penicillin-streptomycin (P/S) then grown under humidified conditions at 37° C. and 5% CO2.
The assay controls—Digitonin (D141-100MG), Ionomycin (I064-1MG) and Mitomycin C (M4287-2MG)—were purchased from Sigma. Through a control plate evaluation, the optimal control concentration was selected for HDACi on the compound plates—30 μg/mL Digitonin, 100 μM Ionomycin, and 25 μg/mL Mitomycin.
Murine melanoma cells were treated with individual HDACi along with the protocol recommended assay controls. Following the manufacturers protocol, Viability/Cytotoxity reagents were added—fluorescence was measured at […] 400Ex/505Em (viability) and 485Ex/520Em (cytotoxicity). Next, the Caspase 3/7 reagent was added, after incubation, luminescence was measured at Lm578 (apoptosis). Assay measurements were collected using the SpectraMax. During analysis, LBH is used as the control compound.

The subject of data set [8] is Human melanoma WM164 cells. In words: Cytotoxicity assay (CellTox) in WM164 cells. The note with it: different concentrations, 24 hour reading. The format is cell-based. The protocol: All cells were cultured in RPMI 1640 media, supplemented with 10% FBS, penicillin/streptomycin (50 U/ml), L-glutamine (2 mM), and 2-mercaptoethanol ([…]) (complete media), and grown under humidified conditions at 37° C. and 5% CO2.
Cells were plated at a desired density in a black, flat clear bottom, 96 well plate. After 24 hours of cell growth, the media was removed from all the wells, fresh media was added with the fluorescent CellTox dye, using the manufactured protocol. The plate was then treated with the compounds of interest at the various concentrations of the compound. Immediately after plating, a baseline reading was performed. The plate was then incubated for 24 hours before the next reading was done, which was considered the 24 hour reading. Assay measurements were collected using the SoftMax Pro Microplate Data Acquisition and Analysis Software paired with Molecular Devices spectrophotometer (SpectraMax).
Human melanoma WM164 cells were treated with different concentrations SS-2-08 and SS-01-100 to evaluate the HDAC activity associated with the potential cytotoxic effect of these compounds.

Data set [9] is described as follows: Hepatocyte stability, mouse. The note with it: mouse hepatocytes. The format is in vitro ADME.
The subject of data set [10] is Salmonella typhimurium (TA98 and TA1537). In words: Mini-Ames test. The format is cell-based. The note with it: two Salmonella typhimurium strains, presence and absence of S9 mix. The protocol: […]. SS-2-08 was incubated with two strains of Salmonella typhimurium (TA98 and TA1537) in the presence and absence of mammalian microsomal enzymes (S9 mix) to investigate the possible mutagenicity of this compound. […].

The target of data set [11] is hERG (Homo sapiens, UniProt Q12809). Briefly: cell-based.
The nature of data set [12]: Liver microsomal stability, human. The format is in vitro ADME. The note with it: human liver microsomes.
Data set [13] can be described thus: Hepatocyte stability, human. The format is in vitro ADME. To be noted: human hepatocytes.

T2 sequence (Q13547 whole entry): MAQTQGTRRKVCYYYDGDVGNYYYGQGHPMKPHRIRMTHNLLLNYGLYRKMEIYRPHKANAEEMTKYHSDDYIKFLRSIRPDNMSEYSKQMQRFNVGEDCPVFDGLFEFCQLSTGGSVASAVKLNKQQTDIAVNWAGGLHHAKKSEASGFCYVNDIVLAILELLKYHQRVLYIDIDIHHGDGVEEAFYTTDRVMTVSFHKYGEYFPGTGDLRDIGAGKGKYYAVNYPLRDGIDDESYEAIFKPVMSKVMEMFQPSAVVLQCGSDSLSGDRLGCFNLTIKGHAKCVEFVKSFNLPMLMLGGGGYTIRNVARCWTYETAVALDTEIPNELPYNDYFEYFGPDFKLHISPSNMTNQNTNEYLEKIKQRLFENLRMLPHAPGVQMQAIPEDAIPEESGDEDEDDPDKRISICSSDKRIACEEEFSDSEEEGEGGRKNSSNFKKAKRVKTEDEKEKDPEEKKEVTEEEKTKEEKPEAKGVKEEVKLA
hERG, sequence (Q12809 whole entry): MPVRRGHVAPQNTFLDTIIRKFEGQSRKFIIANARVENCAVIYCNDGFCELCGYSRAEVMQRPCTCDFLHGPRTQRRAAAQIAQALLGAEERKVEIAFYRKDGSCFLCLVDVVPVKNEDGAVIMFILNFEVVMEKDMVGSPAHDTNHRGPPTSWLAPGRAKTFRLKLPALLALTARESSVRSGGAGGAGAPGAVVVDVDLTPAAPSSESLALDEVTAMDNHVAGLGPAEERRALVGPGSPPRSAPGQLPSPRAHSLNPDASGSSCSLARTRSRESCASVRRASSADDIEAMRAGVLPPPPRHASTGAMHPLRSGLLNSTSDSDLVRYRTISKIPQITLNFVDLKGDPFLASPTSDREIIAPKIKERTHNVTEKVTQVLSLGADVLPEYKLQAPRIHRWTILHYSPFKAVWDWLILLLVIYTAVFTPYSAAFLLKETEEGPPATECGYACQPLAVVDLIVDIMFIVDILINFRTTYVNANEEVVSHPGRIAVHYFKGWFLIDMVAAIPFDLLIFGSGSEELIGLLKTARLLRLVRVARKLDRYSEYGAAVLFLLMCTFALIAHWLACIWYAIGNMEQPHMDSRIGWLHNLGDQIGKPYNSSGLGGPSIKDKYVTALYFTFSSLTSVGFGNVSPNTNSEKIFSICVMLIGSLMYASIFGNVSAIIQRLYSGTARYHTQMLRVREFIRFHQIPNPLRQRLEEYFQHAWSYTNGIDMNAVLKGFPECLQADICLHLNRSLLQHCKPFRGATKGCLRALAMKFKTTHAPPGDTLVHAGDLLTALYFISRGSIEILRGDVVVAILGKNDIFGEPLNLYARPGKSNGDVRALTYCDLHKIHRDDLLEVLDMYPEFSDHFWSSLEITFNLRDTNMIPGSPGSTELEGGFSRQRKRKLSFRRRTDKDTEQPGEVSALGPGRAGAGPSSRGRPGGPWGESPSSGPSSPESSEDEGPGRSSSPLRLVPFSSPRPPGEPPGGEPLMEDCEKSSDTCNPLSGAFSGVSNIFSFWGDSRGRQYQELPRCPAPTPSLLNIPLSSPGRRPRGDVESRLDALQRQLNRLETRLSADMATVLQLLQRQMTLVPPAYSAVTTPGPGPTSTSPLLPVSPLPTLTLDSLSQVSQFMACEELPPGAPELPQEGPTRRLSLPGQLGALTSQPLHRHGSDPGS

`O=C(NO)c1cc(CCCCn2ccc3cc(Cl)c(Cl)cc32)on1` [SS-3-94, 5-(4-(5,6-dichloro-1H-indol-1-yl)butyl)-N-hydroxyisoxazole-3-carboxamide]: the IC50 in [1] was 693 nM; in data set [2], 11200 nM. The “Selectivity HDAC1/HDAC6” value in data set [1] is 16.

In turn, `O=C(NO)c1cc(CCCCN2c3ccc(Cl)cc3CCc3cc(Cl)ccc32)on1` [SS-1-54, 5-(4-(2,8-dichloro-10,11-dihydro-5H-dibenzo[bf]azepin-5-yl)butyl)-N-hydroxyisoxazole-3-carboxamide] returned a half-inhibitory concentration (IC50) in [1] of 1340 nM. Besides, the “IC50 (nM) HDAC1” value in [2] is reported as “No inhibition”.

With `CC1(C)CCN(CCCCc2cc(C(=O)NO)no2)c2ccc(Cl)cc21` [SS-4-02, 5-(4-(6-chloro-4,4-dimethyl-3,4-dihydroquinolin-1(2H)-yl)butyl)-N-hydroxyisoxazole-3-carboxamide], the 50% inhibitory concentration (IC50) in [1] stood at 4360 nM; in data set [2] it was 174000 nM. In [1], the “Selectivity HDAC1/HDAC6” value came to 40.

In the case of `O=C(NCCc1cc(C(=O)NO)no1)c1cccc(-c2ccccc2)c1` [SS-3-67, 5-(2-([1,1′-biphenyl]-3-ylcarboxamido)ethyl)-N-hydroxyisoxazole-3-carboxamide], in data set [1], the IC50 was 24.1 nM and the “Selectivity HDAC1/HDAC6” value amounted to 85. In [2], this molecule displayed an IC50 of 2040 nM.

Consider `O=C(NCCc1cc(C(=O)NO)no1)c1ccc2ccccc2c1` [SS-3-66, 5-(2-(2-naphthamido)ethyl)-N-hydroxyisoxazole-3-carboxamide], for which, in [1], the IC50 amounted to 10.3 nM and the “Selectivity HDAC1/HDAC6” value is 294. In data set [2], half-maximal inhibition (IC50) was put at 3030 nM.

With `O=C(NO)c1cc(CCCCN2CCCc3cc(Cl)ccc32)on1` [SS-4-01, 5-(4-(6-chloro-3,4-dihydroquinolin-1(2H)-yl)butyl)-N-hydroxyisoxazole-3-carboxamide], the results for the IC50 in [1] and in data set [2] were 1990 nM and 44000 nM, respectively. In data set [1], the “Selectivity HDAC1/HDAC6” value worked out at 22.

`O=C(NO)c1cc(CCCOc2ccc(Cl)c(Cl)c2)on1` [SS-4-10, 5-(3-(3,4-dichlorophenoxy)propyl)-N-hydroxyisoxazole-3-carboxamide] registered a 50% inhibitory concentration (IC50) in data set [1] of 195 nM.

On to `O=C(NCCc1cc(C(=O)NO)no1)c1ccc(Cl)c(Cl)c1` [SS-2-08, 5-(2-(3,4-dichlorobenzamido)ethyl)-N-hydroxyisoxazole-3-carboxamide], for which the tumor growth result in [3] is “reduces in vivo tumor growth”. In addition, the HDAC activity result in data set [4] is listed as “reduced the HDAC activity in a dose-dependent manner”. Also, in [5], the “levels of acetylated tubulin” value was “increased”. Also, the “Liver microsomal stability (t1/2 min, with NADPH) Mouse” value in [6] came to 0.617 h. Besides, in data set [7], the “apoptosis (Caspase 3/7)” value is “does not induce apoptosis”. For the same molecule, the cytotoxicity entry in data set [8] is given as “minimal cytotoxicity effects”. For the same molecule, the “Hepatocyte stability (t1/2 min) Mouse” value in data set [9] came out at 0.367 h. In addition, the Mini-Ames test result in data set [10] was “No significant number of revertant colonies; also recorded: Negative”. Also, the half-inhibitory concentration (IC50) in data set [11] was > 30000 nM. In data set [12], the “Liver microsomal stability (t1/2 min, with NADPH) Human” value is 2.25 h. In addition, in [13], the “Hepatocyte stability (t1/2 min) Human” value amounted to 1.8 h.

With `O=C(NCCc1cc(C(=O)NO)no1)c1ccccc1` [SS-1-100, 5-(2-Benzamidoethyl)-N-hydroxyisoxazole-3-carboxamide], the HDAC activity result in data set [4] is recorded as “reduced the HDAC activity in a dose-dependent manner”. In addition, the “levels of acetylated tubulin” value in data set [5] is “increased”. Also, in [8], the cytotoxicity entry is reported as “minimal cytotoxicity effects”. In data set [1], this molecule had an IC50 of 194 nM. The “IC50 (nM) HDAC1” value in data set [2] is “No inhibition”.
